From PubChem BioAssay AID2060491 (Molecular Pharmacology Branch, DTP, NCI, 2025)

Test system: 857933-349-R-J2-PDC complex spheroids, viability
Assay: Anticancer human tumor 857933-349-R-J2-PDC patient-derived colon adenocarcinoma cell line growth inhibition [GQUAD]
Settings: for IC50: curve of first compound; for viability, T/C: stronger effect = lower value
Method in brief: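 Tumor cells were grown as complex spheroids with HUVEC endothelial cells and mesenchymal stem cells as stroma. G-quadruplex stabilizers were combined with targeted agents over half-log dilutions from near the clinical Cmax, or from 10 microM.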

[1] = second compound 0.0316 µM, first compound 0.0316 µM
[2] = second compound 0.0316 µM, first compound 0.1 µM
[3] = second compound 0.0316 µM, first compound 0.316 µM
[4] = second compound 0.0316 µM, first compound 1 µM
[5] = second compound 0.0316 µM, first compound 3.16 µM
[6] = second compound 0.0316 µM, first compound 10 µM
[7] = second compound 0.1 µM, first compound 0.0316 µM
[8] = second compound 0.1 µM, first compound 0.1 µM
[9] = second compound 0.1 µM, first compound 0.316 µM
[10] = second compound 0.1 µM, first compound 1 µM
[11] = second compound 0.1 µM, first compound 3.16 µM
[12] = second compound 0.1 µM, first compound 10 µM
[13] = second compound 0.316 µM, first compound 0.0316 µM
[14] = second compound 0.316 µM, first compound 0.1 µM
[15] = second compound 0.316 µM, first compound 0.316 µM
[16] = second compound 0.316 µM, first compound 1 µM
[17] = second compound 0.316 µM, first compound 3.16 µM
[18] = second compound 0.316 µM, first compound 10 µM
[19] = second compound 1 µM, first compound 0.0316 µM
[20] = second compound 1 µM, first compound 0.1 µM
[21] = second compound 1 µM, first compound 0.316 µM
[22] = second compound 1 µM, first compound 1 µM
[23] = second compound 1 µM, first compound 3.16 µM
[24] = second compound 1 µM, first compound 10 µM
[25] = second compound 3.16 µM, first compound 0.0316 µM
[26] = second compound 3.16 µM, first compound 0.1 µM
[27] = second compound 3.16 µM, first compound 0.316 µM
[28] = second compound 3.16 µM, first compound 1 µM
[29] = second compound 3.16 µM, first compound 3.16 µM
[30] = second compound 3.16 µM, first compound 10 µM
[31] = second compound 10 µM, first compound 0.0316 µM
[32] = second compound 10 µM, first compound 0.1 µM
[33] = second compound 10 µM, first compound 0.316 µM
[34] = second compound 10 µM, first compound 1 µM
[35] = second compound 10 µM, first compound 3.16 µM
[36] = second compound 10 µM, first compound 10 µM
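Also: spheroids exposed to compounds for one week before readout.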
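For viability, T/C in this document: percent viability relative to vehicle DMSO wells taken as 100%.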

Compound: CC(C)(O)C1CCC(Nc2ccc3ncc(-c4cccc(C(F)(F)F)c4)n3n2)CC1 (centres undefined) + Cc1cnc(CNC(=O)c2c(=O)c3ccc(N4CCCN(C)CC4)nc3n3c2sc2ccccc23)cn1
- IC50 (second compound 0.0316 µM): 487 nM
- IC50 (second compound 0.1 µM): 151 nM
- IC50 (second compound 0.316 µM): < 31.6 nM
- IC50 (second compound 1 µM): < 31.6 nM
- IC50 (second compound 3.16 µM): < 31.6 nM
- IC50 (second compound 10 µM): < 31.6 nM
- viability, T/C [1]: 86.5%
- viability, T/C [2]: 76%
- viability, T/C [3]: 73.6%
- viability, T/C [4]: 11.1%
- viability, T/C [5]: 0.4%
- viability, T/C [6]: 0.23%
- viability, T/C [7]: 53.4%
- viability, T/C [8]: 57.2%
- viability, T/C [9]: 41.4%
- viability, T/C [10]: 14%
- viability, T/C [11]: 0.2%
- viability, T/C [12]: 0.19%
- viability, T/C [13]: 16.1%
- viability, T/C [14]: 12.6%
- viability, T/C [15]: 8.9%
- viability, T/C [16]: 7.61%
- viability, T/C [17]: 0.11%
- viability, T/C [18]: 0.07%
- viability, T/C [19]: 3.09%
- viability, T/C [20]: 3%
- viability, T/C [21]: 2.95%
- viability, T/C [22]: 3.84%
- viability, T/C [23]: 0.05%
- viability, T/C [24]: 0.07%
- viability, T/C [25]: 1.54%
- viability, T/C [26]: 1.85%
- viability, T/C [27]: 2.05%
- viability, T/C [28]: 1.16%
- viability, T/C [29]: 0.11%
- viability, T/C [30]: 0.12%
- viability, T/C [31]: 0.23%
- viability, T/C [32]: 0.19%
- viability, T/C [33]: 0.3%
- viability, T/C [34]: 0.28%
- viability, T/C [35]: 0.22%
- viability, T/C [36]: 0.21%

Compound: COc1ncnc(C2CC2)c1-c1ncc2cnn(Cc3ccc(-c4nc(C(F)(F)F)cn4C(C)C)cc3)c2n1 + Cc1cnc(CNC(=O)c2c(=O)c3ccc(N4CCCN(C)CC4)nc3n3c2sc2ccccc23)cn1
- IC50 (second compound 0.0316 µM): > 10000 nM
- IC50 (second compound 0.1 µM): > 10000 nM
- IC50 (second compound 0.316 µM): < 31.6 nM
- IC50 (second compound 1 µM): < 31.6 nM
- IC50 (second compound 3.16 µM): < 31.6 nM
- IC50 (second compound 10 µM): < 31.6 nM
- viability, T/C [1]: 108%
- viability, T/C [2]: 80.5%
- viability, T/C [3]: 85.4%
- viability, T/C [4]: 81.6%
- viability, T/C [5]: 85.1%
- viability, T/C [6]: 86%
- viability, T/C [7]: 55.2%
- viability, T/C [8]: 58.1%
- viability, T/C [9]: 50%
- viability, T/C [10]: 64.1%
- viability, T/C [11]: 67.2%
- viability, T/C [12]: 70%
- viability, T/C [13]: 19.1%
- viability, T/C [14]: 19.9%
- viability, T/C [15]: 17.7%
- viability, T/C [16]: 22.1%
- viability, T/C [17]: 23.2%
- viability, T/C [18]: 18.1%
- viability, T/C [19]: 3.57%
- viability, T/C [20]: 3.77%
- viability, T/C [21]: 3.91%
- viability, T/C [22]: 3.85%
- viability, T/C [23]: 4.62%
- viability, T/C [24]: 7.3%
- viability, T/C [25]: 2.42%
- viability, T/C [26]: 2.35%
- viability, T/C [27]: 2.33%
- viability, T/C [28]: 2.58%
- viability, T/C [29]: 3.1%
- viability, T/C [30]: 2.88%
- viability, T/C [31]: 0.21%
- viability, T/C [32]: 0.29%
- viability, T/C [33]: 0.4%
- viability, T/C [34]: 0.43%
- viability, T/C [35]: 0.91%
- viability, T/C [36]: 0.42%
